In ChEMBL document CHEMBL5532665 (J Med Chem, 2024):
Calls of active or inactive are those of the source. No cut-off for these calls is given here.

What was measured:
[1] = tested on: Mus musculus; experiment: Antinociceptive activity in Kunming mouse model assessed as latency of tail withdrawal at 138.8 nmol/kg, sc measured for 10 mins by tail-flick test relative to control; assay type: functional
[2] = tested on: Mus musculus; experiment: Antinociceptive activity in Kunming mouse model assessed as latency of tail withdrawal at 138.8 nmol/kg, sc measured for 30 mins by tail-flick test relative to control; assay type: functional; conditions: 0.5 h
[3] = tested on: Mus musculus; experiment: Antinociceptive activity in Kunming mouse model assessed as latency of tail withdrawal at 138.8 nmol/kg, sc measured for 120 mins by tail-flick test relative to control; assay type: functional; conditions: 2 h
[4] = tested on: Mus musculus; experiment: Antinociceptive activity in Kunming mouse model assessed as latency of tail withdrawal at 138.8 nmol/kg, sc measured for 60 mins by tail-flick test relative to control; assay type: functional; conditions: 1 h
[5] = molecular target: T1, Mu-type opioid receptor (Homo sapiens, UniProt P35372); experiment: Agonist activity at human MOR expressed in CHO-K1 cells co-expressing G-alpha15 by calcium mobilization assay; assay type: functional, cell-based
[6] = Stability in mouse plasma assessed as half life at 0.01 mol/L measured for 72 hrs by RP-HPLC analysis; assay type: ADME, cell-free
[7] = molecular target: T2, Kappa-type opioid receptor (Homo sapiens, UniProt P41145); experiment: Agonist activity at human KOR expressed in CHO-K1 cells co-expressing G-alpha15 by calcium mobilization assay; assay type: functional, cell-based
[8] = molecular target: T3, Delta-type opioid receptor (Homo sapiens, UniProt P41143); experiment: Agonist activity at human DOR expressed in CHO-K1 cells co-expressing G-alpha15 by calcium mobilization assay; assay type: functional, cell-based
[9] = tested on: Mus musculus; experiment: Antinociceptive activity in Kunming mouse model assessed as latency of tail withdrawal at 1416 nmol/kg, sc measured for 60 mins by tail-flick test relative to control; assay type: functional; conditions: 1 h
[10] = tested on: Mus musculus; experiment: Antinociceptive activity in Kunming mouse model assessed as latency of tail withdrawal at 1416 nmol/kg, sc measured for 30 mins by tail-flick test relative to control; assay type: functional; conditions: 0.5 h
[11] = molecular target: T3, Delta-type opioid receptor; experiment: Agonist activity at human DOR expressed in CHO-K1 cells co-expressing G-alpha15 by calcium mobilization assay relative to control; assay type: functional, cell-based; conditions: filed as agonist
[12] = tested on: Mus musculus; experiment: Antinociceptive activity in Kunming mouse model assessed as latency of tail withdrawal at 1416 nmol/kg, sc measured for 120 mins by tail-flick test relative to control; assay type: functional; conditions: 2 h
[13] = molecular target: T2, Kappa-type opioid receptor; experiment: Agonist activity at human KOR expressed in CHO-K1 cells co-expressing G-alpha15 upto 100 uM by calcium mobilization assay; assay type: functional, cell-based
[14] = tested on: Mus musculus; experiment: Antinociceptive activity in Kunming mouse model assessed as latency of tail withdrawal at 1416 nmol/kg, sc measured for 10 mins by tail-flick test relative to control; assay type: functional
[15] = molecular target: T1, Mu-type opioid receptor; experiment: Agonist activity at human MOR expressed in CHO-K1 cells co-expressing G-alpha15 by calcium mobilization assay relative to control; assay type: functional, cell-based; conditions: filed as agonist
[16] = molecular target: T2, Kappa-type opioid receptor; experiment: Agonist activity at human KOR expressed in CHO-K1 cells co-expressing G-alpha15 by calcium mobilization assay relative to control; assay type: functional, cell-based

T2 sequence (P41145 whole entry): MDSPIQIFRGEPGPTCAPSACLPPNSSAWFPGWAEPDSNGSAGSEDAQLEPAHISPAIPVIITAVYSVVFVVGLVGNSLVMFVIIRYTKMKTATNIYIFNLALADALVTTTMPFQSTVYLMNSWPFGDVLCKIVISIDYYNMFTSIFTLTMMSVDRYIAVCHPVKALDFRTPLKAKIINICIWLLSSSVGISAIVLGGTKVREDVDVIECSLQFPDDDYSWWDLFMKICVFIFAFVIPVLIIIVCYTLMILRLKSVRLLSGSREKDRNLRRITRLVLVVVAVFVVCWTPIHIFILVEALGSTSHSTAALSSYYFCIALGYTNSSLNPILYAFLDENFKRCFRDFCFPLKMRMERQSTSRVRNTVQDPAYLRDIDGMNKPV
T3 sequence (P41143 whole entry): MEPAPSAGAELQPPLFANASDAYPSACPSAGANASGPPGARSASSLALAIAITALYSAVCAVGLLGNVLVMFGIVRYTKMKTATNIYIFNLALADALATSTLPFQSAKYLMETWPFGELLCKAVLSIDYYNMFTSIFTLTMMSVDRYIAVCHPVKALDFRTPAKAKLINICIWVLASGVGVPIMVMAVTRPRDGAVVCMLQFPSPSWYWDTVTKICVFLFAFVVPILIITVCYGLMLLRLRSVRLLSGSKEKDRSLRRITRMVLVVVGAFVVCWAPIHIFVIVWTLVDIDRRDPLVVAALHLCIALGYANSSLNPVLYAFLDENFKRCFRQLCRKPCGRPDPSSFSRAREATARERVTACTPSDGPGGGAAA
T1 sequence (P35372 whole entry): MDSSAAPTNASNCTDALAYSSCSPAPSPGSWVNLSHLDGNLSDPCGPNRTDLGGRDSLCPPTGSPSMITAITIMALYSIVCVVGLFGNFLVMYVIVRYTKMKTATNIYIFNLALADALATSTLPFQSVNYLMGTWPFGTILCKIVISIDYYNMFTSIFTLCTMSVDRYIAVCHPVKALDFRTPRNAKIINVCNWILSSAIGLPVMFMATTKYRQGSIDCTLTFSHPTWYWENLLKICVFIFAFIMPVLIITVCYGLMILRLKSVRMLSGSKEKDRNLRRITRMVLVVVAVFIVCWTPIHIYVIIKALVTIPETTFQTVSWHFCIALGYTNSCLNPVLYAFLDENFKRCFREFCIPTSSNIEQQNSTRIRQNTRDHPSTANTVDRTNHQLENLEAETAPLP

For `Cc1ccc(C[C@@H]2NC(=O)CNC(=O)[C@H](NC(=O)[C@@H](N)Cc3ccc(O)cc3)CCCCNC(=O)C[C@@H](C(=O)N3CCC[C@@H]3C(N)=O)NC2=O)cc1`, the MPE [1] was 44.8%, the MPE [2] was 95.6% and the MPE [3] was 39.2%. For the same compound, the MPE [4] was 67.1%.
For `CC1(C)NC(=O)[C@H](NC(=O)[C@@H](N)Cc2ccc(O)cc2)CCCCNC(=O)C[C@@H](C(=O)N2CCC[C@@H]2C(N)=O)NC(=O)[C@H](Cc2ccccc2)NC1=O`, the EC50 ([5]; cho-k1) was 5.3 nM, the half-life at 0.01 mol/L [6] was > 72 h and the EC50 ([7]; cho-k1) was 7250 nM. It also gave an EC50 ([8]; cho-k1) of 49.1 nM.
`NC(=O)[C@@H]1CCCN1C(=O)[C@H]1CC(=O)NCCCC[C@@H](NC(=O)[C@@H](N)Cc2ccc(O)cc2)C(=O)NCC(=O)N[C@H](Cc2ccccc2)C(=O)N1` showed an EC50 [5] of 41.6 nM, an MPE [9] of 55.5% and an MPE [10] of 86.6%. The Emax [11] was 72.8%, the MPE [12] was 28.3% and the Activity [13] was “inactive”. It also gave an MPE [14] of 61.8%, an Emax [15] of 104% and an EC50 [8] of 965 nM.
Compound `Cc1cc(O)cc(C)c1C[C@H](N)C(=O)N[C@@H]1CCCCNC(=O)C[C@H](C(=O)N2CCC[C@H]2C(N)=O)NC(=O)[C@H](Cc2ccccc2)NC(=O)CNC1=O` has an Emax [16] of 39.2%, an Emax [11] of 116% and an Emax [15] of 101%.
Work on `NC(=O)[C@H]1CCCN1C(=O)[C@@H]1CC(=O)NCCCC[C@@H](NC(=O)[C@@H](N)Cc2ccc(O)cc2)C(=O)NCC(=O)N(Cc2ccccc2)CC(=O)N1` yielded an EC50 ([5]; cho-k1) of 36.1 nM and an EC50 ([8]; cho-k1) of 837 nM.
With `CN1CC(=O)N[C@@H](Cc2ccccc2)C(=O)N[C@@H](C(=O)N2CCC[C@H]2C(N)=O)CC(=O)NCCCC[C@@H](NC(=O)[C@@H](N)Cc2ccc(O)cc2)C1=O` the Emax [11] was 100% and the Emax [15] was 118%.
For `CN1CC(=O)N[C@@H](Cc2ccccc2)C(=O)N[C@H](C(=O)N2CCC[C@@H]2C(N)=O)CC(=O)NCCCC[C@@H](NC(=O)[C@@H](N)Cc2ccc(O)cc2)C1=O`, the EC50 ([5]; cho-k1) was 1150 nM and the EC50 ([8]; cho-k1) was 3030 nM.
For `NC(=O)[C@@H]1CCCN1C(=O)[C@H]1CC(=O)NCCCC[C@@H](NC(=O)[C@@H](N)Cc2ccc(O)cc2)C(=O)NCC(=O)N[C@@H](CCc2ccccc2)C(=O)N1`, the Emax [11] was 66.6%, the Activity [13] was “inactive” and the Emax [15] was 99.8%.
Work on `NC(=O)[C@@H]1CCCN1C(=O)[C@H]1CC(=O)NCCCC[C@@H](NC(=O)[C@@H](N)Cc2ccc(O)cc2)C(=O)NCC(=O)N[C@@H](CC2CCCCC2)C(=O)N1` yielded an Emax [11] of 54.4% and an Emax [15] of 105%.
`NC(=O)[C@H]1CCCN1C(=O)[C@@H]1CC(=O)NCCCC[C@@H](NC(=O)[C@@H](N)Cc2ccc(O)cc2)C(=O)NCC(=O)N[C@@H](Cc2ccccc2)C(=O)N1` [listing 1 of 2 here] showed an MPE [9] of 63.7%, an MPE [10] of 91.2% and an MPE [12] of 33.6%. The MPE [14] was 65.5%.
Compound `NC(=O)[C@H]1CCCN1C(=O)[C@@H]1CC(=O)NCCCC[C@@H](NC(=O)[C@@H](N)Cc2ccc(O)cc2)C(=O)NCC(=O)N[C@@H](Cc2ccccc2)C(=O)N1` [listing 2 of 2 here] has an EC50 [5] of 31.1 nM, a half-life at 0.01 mol/L [6] of 41.9 h and an EC50 [7] of 2830 nM. For the same compound, the EC50 [8] was 2.1 nM.
`NC(=O)CNC(=O)[C@H]1CC(=O)NCCCC[C@@H](NC(=O)[C@@H](N)Cc2ccc(O)cc2)C(=O)NCC(=O)N[C@@H](Cc2ccccc2)C(=O)N1` showed an Emax ([16]; filed as agonist) of 48.4%, an Emax [11] of 104% and an Emax [15] of 91.1%.
`NC(=O)[C@H]1CC(=O)NCCCC[C@@H](NC(=O)[C@@H](N)Cc2ccc(O)cc2)C(=O)NCC(=O)N[C@@H](Cc2ccccc2)C(=O)N1` gave an Emax ([16]; filed as agonist) of 85.5%, an Emax [11] of 125% and an Emax [15] of 103%.
In the case of `NC(=O)[C@@H]1CCCN1C(=O)[C@H]1CC(=O)NCCCC[C@@H](NC(=O)[C@@H](N)Cc2ccc(O)cc2)C(=O)NCC(=O)N(Cc2ccccc2)CC(=O)N1`, the Emax [11] is reported as 88.9%, the Activity [13] is reported as “inactive” and the Emax [15] is reported as 113%.
